Laboratory results from the NIST ThermoML archive (doi:10.1016/j.tca.2014.07.018).
Numbers after ± are expanded uncertainties.

Test: molar heat capacity at constant pressure
Conditions: 101.33 kPa, Crystal, Small (less than 1 g) adiabatic calorimetry

C1C2CC3CC1CC(c1nnn[nH]1)(C2)C3 [5-(1-adamantyl)tetrazole]
Conditions | molar heat capacity at constant pressure [J/K/mol]
5 K | 0.4912 ± 0.026
10 K | 3.942 ± 0.085
15 K | 9.695 ± 0.14
20 K | 16.01 ± 0.17
25 K | 22.15 ± 0.19
30 K | 27.84 ± 0.2
35 K | 32.99 ± 0.23
40 K | 37.67 ± 0.25
45 K | 42 ± 0.28
50 K | 46.01 ± 0.3
60 K | 53.34 ± 0.33
70 K | 60.13 ± 0.37
80 K | 66.67 ± 0.41
90 K | 73.18 ± 0.45
100 K | 79.7 ± 0.49
120 K | 92.76 ± 0.55
140 K | 106.3 ± 0.6
160 K | 120.6 ± 0.7
180 K | 136 ± 0.7
200 K | 152.5 ± 0.8
220 K | 170 ± 0.9
240 K | 188.4 ± 1
260 K | 207.4 ± 1.1
280 K | 225.3 ± 1.2
298.15 K | 240 ± 1.3
300 K | 241.6 ± 1.3
320 K | 256.9 ± 1.3
340 K | 272 ± 1.4
360 K | 287.6 ± 1.5
370 K | 295.6 ± 1.5
